Test results as given in patent US8093374B2, “Bismuth hyaluronate, the preparation method and the use thereof” (priority 2005, dated 2012).
Marks after values point to notes of the source that are not given here.

What was measured:
[1] = test system: acetic acid-induced gastric ulcer; assay: Protecting effect on acetic acid-induced gastric ulcer in rats; assay type: in vivo, Female Wistar rats; details: for Area of Ulcer (x ± s): intragastric once daily for 10 consecutive days, negative control 15.71 ± 2.20; for Inhibition of Ulcer: intragastric once daily for 10 days, percentage of the control
Source text: Female Wistar rats weighing 150 to 200 g were used. Following the method described in literatures ((1) Pharmacological Test Methodology, 2nd edition, Beijing, People's Health Press, 1991, 1158-1160; (2) Guidelines for preclinical studies of new drugs (western medicines) (pharmacy, pharmacology, toxicology), 1993, 88-89), a model of acetic acid-induced gastric ulcer was made. Specifically, in an area of 5 mm in diameter on the serosal side of the body of stomach in rats under anesthesia with ether, gastric ulcer was induced by treatment with 0.2 ml of glacial acetic acid for 1.5 min. On the next day following the operation, animals were randomly divided into 6 groups and started on oral administration, with distilled water as negative control and colloidal bismuth pectin as positive control. The test samples are the bismuth hyaluronate of the present invention prepared according to the Preparation Example 1 (having a glucuronate content of 27.9% and a bismuth content of 30.7%) and the starting material sodium hyaluronate (having an average molecular weight of 9.1×10^5 and a glucuronate content of 38.9%). The rats received intragastric administration once daily in a volume of about 10 ml for 10 consecutive days. Then the animals were sacrificed, and their stomachs were removed and fixed in a formaldehyde solution. After dissection, the size of the gastric ulcer was determined by measuring under microscope the maximum longitudinal diameter (d1) and the maximum transverse diameter (d2) through the center of the ulcer, and calculating the area of ulcer using the following equation: S=π×(d1/2)×(d2/2). The inhibition of ulcer was expressed as the percentage of the control.

[2] = test system: hydrochloric acid-ethanol-induced injury to gastric mucosa; assay: Prevention and treatment of hydrochloric acid-ethanol-induced injury to gastric mucosa in rats; assay type: in vivo, Female Wistar rats; details: for Length of injury (x ± s): sacrificed 1 h after, negative control 97.50 ± 13.28
Protocol: Female Wistar rats weighing 150 to 200 g were used. Following the method described in the literature (Methodology of pharmacological studies of Chinese medicines, Beijing, People's Health Press, 1994: 441). The rats were fasted, with access to water, for 24 h. Then the rats were randomly divided (see above) and received intragastric administration. 30 min after the administration, each rat was drenched with hydrochloric acid-ethanol (a mixture of 50 ml of absolute ethanol and 1 ml of concentrated hydrochloric acid) at a dose of 0.5 ml/100 g of body weight. 1 h after the treatment with acidified ethanol, the animals were sacrificed, and their stomachs were removed and fixed in a formaldehyde solution. The stomach was cut open along the greater curvature and washed for examination of the injury to the gastric mucous membrane.

[3] = 150 mg/kg intragastric 30 min before hydrochloric acid-ethanol
[4] = 50 mg/kg intragastric 30 min before hydrochloric acid-ethanol
[5] = 100 mg/kg intragastric 30 min before hydrochloric acid-ethanol

Substance	Area of Ulcer (x ± s) ([1]; 150 mg/kg)	Inhibition of Ulcer ([1]; 150 mg/kg) [%]	Inhibition of Ulcer [2, 3] [%]	Length of injury (x ± s) [2, 3]	Area of Ulcer (x ± s) ([1]; 50 mg/kg)	Inhibition of Ulcer ([1]; 50 mg/kg) [%]	Area of Ulcer (x ± s) ([1]; 100 mg/kg)	Inhibition of Ulcer ([1]; 100 mg/kg) [%]	inhibition of acetic acid-induced gastric ulcer (in words) ([1]; rats, summary of Table 2)	inhibition of acetic acid-induced gastric ulcer compared with colloidal bismuth pectin (in words) ([1]; rats, versus positive control)	Inhibition of Ulcer [2, 4] [%]	Length of injury (x ± s) [2, 4]	Inhibition of Ulcer [2, 5] [%]	Length of injury (x ± s) [2, 5]	inhibition of acidified ethanol-induced gastric ulcer (in words) ([2]; rats, summary of Table 3)	inhibition of acidified ethanol-induced gastric ulcer compared with colloidal bismuth pectin (in words) ([2]; rats, versus positive control)
sodium hyaluronate [reference compound]	10.25 ± 2.29 mm^2	34.75	48.16	50.54 ± 11.98 mm												
colloidal bismuth pectin [reference compound]	7.15 ± 2.03* mm^2	54.48	55.24	43.64 ± 9.55 mm												
bismuth hyaluronate	4.05 ± 1.62***^ΔΔ mm^2	74.22	92.70	7.11 ± 2.13***^ΔΔΔ mm	5.92 ± 2.27** mm^2	62.32	4.98 ± 1.15***^Δ mm^2	68.30	statistically significant inhibition	significantly higher than the positive control	72.78	26.54 ± 7.88***^ΔΔ mm	92.93	6.89 ± 1.86***^ΔΔΔ mm	statistically significant inhibition	significantly higher than the positive control
